US20240083857A1, “2-Methyl-Quinazolines” (Bayer Pharma Aktiengesellschaft, priority 2017, published 2024)

Assays:
[1] = molecular target: human SOS1 (nucleotide exchange of K-Ras^G12C) (Homo sapiens, UniProt Q07889); assay: Biochemical assay 2: K-Ras^G12C activation assay by hSOS1 at high GTP concentration (HTRF); details: high GTP; read-out: Assay 2 (KRAS-Activation by SOS high GTP) activity expressed as IC50
Source text: Biochemical Assay 2: K-Ras^G12C Activation Assay by hSOS1 at High GTP Concentration
This assay quantifies human SOS1-mediated nucleotide exchange of K-Ras^G12C preloaded with a fluorescent […] and in presence of an excess of free GTP. Loaded hK-Ras^G12C generates a high HTRF-signal by energy transfer from antiGST-Terbium (FRET donor) bound to K-Ras to the loaded fluorescent GDP analog (FRET-acceptor). SOS1 activity exchanges the fluorescent GDP for non-fluorescent GTP and therefore leads to a reduction of the HTRF signal.
The fluorescent GDP-analog EDA-GDP-Dy647P1 (2′/3′-O-(2-Aminoethyl-carbamoyl)-guanosine-5′-diphosphate labelled with Dy647P1 (Dyomics GmbH, Germany)) was synthesized by Jena Biosciences GmbH (Germany) and supplied as a 1 mM aqueous solution.
Concentrations of protein batches used were optimized to be within the linear range of the HTRF signal.
Preparation of GST-tagged hK-Ras^Gl2C loaded with fluorescent nucleotide was performed as follows: incubation of 11.5 μM hK-Ras^Gl2C with 5-fold excess GDP-Dy647 nucleotide (54 μM) in 500 μl NLS-buffer (RAS activation Kit Jena Bioscience, Kat. #PR-950) for 10 min at 37° C. Addition of 20 μl 1 M MgCl2 (Sigma) to final 40 mM and store on ice. Purification into buffer (10 mM HEPES pH 7.4 (Applichem), 150 mM NaCl (Sigma), 5 mM MgCl2 (Sigma)) by use of a PD-Minitrap desalting column (GE Healthcare). Concentration of 1 ml purified hK-Ras-GDP-Dy647 is approx. 4-5 μM.
(§1) The assay buffer contained 10 mM HEPES pH 7.4 (Applichem), 150 mM NaCl (Sigma), 5 mM MgCl2 (Sigma), 1 mM DTT (Thermofisher), 0.05% BSA Fraction V, pH 7.0, (ICN Biomedicals), 0.0025% (v/v) Igepal (Sigma).
A Ras working solution was prepared in assay buffer containing typically 80 nM loaded GST-hK-RasG12C-EDA-GDP-Dy647P1 and 2 nM antiGST-Tb (Cisbio, France). A hSOS1 working solution was prepared in assay buffer containing typically 8 nM His-hSOS1 and 100 μM GTP (Jena Bioscience, Germany). An inhibitor control solution was prepared in assay buffer containing the same concentration of […].
(§2) Fifty nl of a 100-fold concentrated solution of the test compound in DMSO were transferred into a black microtiter test plate (384 or 1536, Greiner Bio-One, Germany). For this, either a Hummingbird liquid handler (Digilab, MA, USA) or an Echo acoustic system (Labcyte, CA, USA) was used.
(§3) All steps of the assay were performed at 20° C. A volume of 2.5 μl of the Ras working solution was added to all wells of the test plate using a Multidrop dispenser (Thermo Labsystems). After 2 min preincubation, 2.5 μl of the hSOS1 working solution were added to all wells except for those wells at the side of the test plate that were subsequently filled with 2.5 μl of the inhibitor control solution. After 20 min incubation the fluorescence was measured with a Pherastar (BMG, Germany) using the HTRF module (excitation 337 nm, emission 1: 620 nm, emission 2: 665 nm).
(§4) IC50 values were calculated by 4-Parameter fitting using a commercial software package (Genedata Screener, Switzerland).

[2] = molecular target: K-Ras^G12C : hSOS1 interaction (Homo sapiens, UniProt Q07889); assay: Biochemical assay 1: K-Ras^G12C interaction assay with hSOS1 (HTRF); format: binding; details: read-out: Assay 1 (KRAS-SOS Interaction) activity expressed as IC50
Method: Biochemical assay 1: K-Ras^G12C Interaction Assay with hSOS1
This assay quantifies the equilibrium interaction of human SOS1 with K-Ras^Gl2C. Detection of the interaction is achieved by measuring homogenous time-resolved fluorescence resonance energy transfer (HTRF) from antiGST-Europium (FRET donor) bound to GST-K-Ras^G12C to anti-6His-XL665 bound to His-tagged hSOS1 (FRET-acceptor).
The assay buffer contained 5 mM HEPES pH 7.4 (Applichem), 150 mM NaCl (Sigma), 10 mM EDTA (Promega), 1 mM DTT (Thermofisher), 0.05% BSA Fraction V, pH 7.0, (ICN Biomedicals), 0.0025% (v/v) Igepal (Sigma) and 100 mM KF (FLUKA).
Concentrations of protein batches used were optimized to be within the linear range of the HTRF signal. A Ras working solution was prepared in assay buffer containing typically 10 nM GST-hK-RasG12C and 2 nM antiGST-Eu(K) (Cisbio, France). A SOS working solution was prepared in assay buffer containing typically 20 nM His-hSOS1 and 10 nM anti-6His-XL665 (Cisbio, France). An inhibitor control solution was prepared in assay buffer containing 10 nM anti-6His-XL665 without hSOS1.
as §2
as §3, with “the SOS” for “the hSOS1”, “After 60” for “After 20”
as §4

[3] = molecular target: human SOS1 (loading of human K-Ras^G12C-GDP with fluorescent GTP-analog) (Homo sapiens, UniProt Q07889); assay: Biochemical assay 3: K-Ras^G12C activation assay by hSOS1 (HTRF); details: no GTP; read-out: Assay 3 (KRAS-Activation by SOS no GTP) activity expressed as IC50
Source text: Biochemical assay 3: K-Ras^G12C Activation Assay by hSOS1
K-Ras is a small GTPase that can bind GDP and GTP. The guanine nucleotide exchange factor SOS catalyzes the activation of K-Ras by promoting the exchange of GDP to GTP. SOS binds to K-Ras-GDP thereby opening the GDP-binding pocket to facilitate GDP release. Rebinding of excess nucleotide leads to dissociation of the K-Ras-SOS intermediate complex leaving K-Ras loaded with the nucleotide.
This assay quantifies human SOS1-mediated loading of human K-Ras^G12C-GDP with a fluorescent GTP-analog. Detection of successful loading is achieved by measuring homogenous time-resolved fluorescence resonance energy transfer (HTRF) from antiGST-Terbium (FRET donor) bound to GST-K-RasG12C to the loaded fluorescent GTP analog (FRET-acceptor).
The fluorescent GTP-analog EDA-GTP-Dy647P1 (2′/3′-O-(2-Aminoethyl-carbamoyl)-guanosine-5′-triphosphate labelled with Dy647P1 (Dyomics GmbH, Germany)) was synthesized by Jena Biosciences GmbH (Germany) and supplied as a 1 mM aqueous solution.
as §1
Concentrations of protein batches used were optimized to be within the linear range of the HTRF signal. A Ras working solution was prepared in assay buffer containing typically 100 nM GST-hK-RasG12C and 2 nM antiGST-Tb (Cisbio, France). A hSOS1 working solution was prepared in assay buffer containing typically 20 nM hSOS1 and 200 nM EDA-GTP-Dy647P1. An inhibitor control solution was prepared in assay buffer containing 200 nM EDA-GTP-Dy647P1 without hSOS1.
as §2
as §3, with “After 10” for “After 2”, “After 30” for “After 20”
as §4

SMILES | IC50 [1] [µM] | IC50 [2] [µM] | IC50 [3] [µM]
COc1cc2nc(C)nc(N[C@@H](C)c3ccc(-c4cncnc4)s3)c2cc1OC (racemic) [Example 42, 6,7-dimethoxy-2-methyl-N-{1-[5-(pyrimidin-5-yl)thiophen-2-yl]ethyl}quinazolin-4-amine] | 5.58 | 4.27 | 
COc1cc2nc(C)nc(N[C@@H](C)c3ccc(-c4ccc5c(ccn5C)c4)s3)c2cc1OC (racemic) [Example 49, 6,7-dimethoxy-2-methyl-N-{1-[5-{1-methyl-1H-indol-5-yl)thiophen-2-yl]ethyl}quinazolin-4-amine] |  | 19.6 | 
COCc1ccccc1-c1ccc([C@H](C)Nc2nc(C)nc3cc(OC)c(OC)cc23)s1 (racemic) [Example 50, 6,7-dimethoxy-N-[1-{5-[2-(methoxymethyl)phenyl]thiophen-2-yl}ethyl]-2-methylquinazolin-4-amine] | 20 | 9.85 | 
COc1cc2nc(C)nc(N[C@@H](C)c3ccc(-c4cccc(C(=O)N(C)C)c4)s3)c2cc1OC (racemic) [Example 51, 3-(5-{1-[(6,7-dimethoxy-2-methylquinazolin-4-yl)amino]ethyl}thiophen-2-yl)-N,N-dimethylbenzamide] | 5.9 | 5.63 | 
COc1cc2nc(C)nc(N[C@@H](C)c3ccc(-c4ccc(CO)s4)s3)c2cc1OC (racemic) [Example 52, (5′-{1-[(6,7-dimethoxy-2-methylquinazolin-4-yl)amino]ethyl}-2,2′-bithiophen-5-yl)methanol] | 5.46 | 4.29 | 
COc1cc2nc(C)nc(N[C@@H](C)c3ccc(-c4ccc5c(c4)OCCO5)s3)c2cc1OC (racemic) [Example 98, N-{1-[5-(2,3-dihydro-1,4-benzodioxin-6-yl)thiophen-2-yl]ethyl}-6,7-dimethoxy-2-methylquinazolin-4-amine] |  | 16.1 | 
COc1cc2nc(C)nc(N[C@@H](C)c3ccc(-c4ccc(-c5nnc(C)o5)cc4)s3)c2cc1OC (racemic) [Example 128, 6,7-dimethoxy-2-methyl-N-[1-{5-[4-(5-methyl-1,3,4-oxadiazol-2-yl)phenyl]thiophen-2-yl}ethyl]quinazolin-4-amine] | 16.9 | 13.9 | 
COc1cc2nc(C)nc(N[C@@H](C)c3ccc(-c4ccc(CNC(C)=O)cc4)s3)c2cc1OC (racemic) [Example 138, N-[4-(5-{1-[(6,7-dimethoxy-2-methylquinazolin-4-yl)amino]ethyl}thiophen-2-yl)benzyl)acetamide] | 7.43 | 5.57 | 
COc1cc2nc(C)nc(N[C@@H](C)c3ccc(-c4cccc(CNS(C)(=O)=O)c4)s3)c2cc1OC (racemic) [Example 139, N-[3-(5-{1-[(6,7-dimethoxy-2-methylquinazolin-4-yl)amino]ethyl}thiophen-2-yl)benzyl]methanesulfonamide] | 6.13 | 4.7 | 
COc1cc2nc(C)nc(N[C@@H](C)c3ccc(-c4ccc(CNS(C)(=O)=O)cc4)s3)c2cc1OC (racemic) [Example 140, N-[4-(5-{1-[(6,7-dimethoxy-2-methylquinazolin-4-yl)amino]ethyl}thiophen-2-yl)benzyl]methanesulfonamide] | 5.26 | 5.33 | 
CCCNC(=O)c1ccc(-c2ccc([C@H](C)Nc3nc(C)nc4cc(OC)c(OC)cc34)s2)cc1 (racemic) [Example 141, 4-(5-{1-[(6,7-dimethoxy-2-methylquinazolin-4-yl)amino]ethyl}thiophen-2-yl)-N-propylbenzamide] |  | 5.63 | 11.1
COc1cc2nc(C)nc(N[C@@H](C)c3ccc(-c4cccc(OC(F)(F)F)c4)s3)c2cc1OC (racemic) [Example 151, 6,7-dimethoxy-2-methyl-N-[1-{5-[3-(trifluoromethoxy)phenyl]thiophen-2-yl}ethyl]quinazolin-4-amine] |  | 10.4 | 13.3
COc1cc2nc(C)nc(N[C@@H](C)c3ccc(-c4ccc5c(c4)OCO5)s3)c2cc1OC (racemic) [Example 163, N-{1-[5-(1,3-benzodioxol-5-yl)thiophen-2-yl]ethyl}-6,7-dimethoxy-2-methylquinazolin-4-amine] |  | 13.6 | 
COc1cccc(-c2ccc([C@H](C)Nc3nc(C)nc4cc(OC)c(OC)cc34)s2)c1 (racemic) [Example 167, 6,7-dimethoxy-N-{1-[5-(3-methoxyphenyl)thiophen-2-yl]ethyl}-2-methylquinazolin-4-amine] |  | 16.9 | 
COc1cc2nc(C)nc(N[C@@H](C)c3ccc(-c4cccc(C(F)(F)F)c4)s3)c2cc1OC (racemic) [Example 168, 6,7-dimethoxy-2-methyl-N-[1-{5-[3-(trifluoromethyl)phenyl]thiophen-2-yl}ethyl]quinazolin-4-amine] |  | 12.2 | 
